Source: DBAASP
≈ marks a conversion by molar mass, not a printed value. Where “and” joins values, the source holds several entries; their conditions need not be identical. Identical values can stand only once.

Assays:
Assay in all cases: ≥ marks a high value that may be exact or a test limit, other limits are often not marked, values filed in µg/mL are converted to µM
[1] = tested on: Aspergillus flavus KCTC 6905
[2] = tested on: Candida albicans KCTC 7270
[3] = tested on: Candida krusei CCARM 14017
[4] = tested on: Candida parapsilosis CCARM 14016
[5] = tested on: Candida tropicalis KCTC 7221
[6] = tested on: Fusarium verticillioides KCTC 6149
[7] = tested on: Trichosporon beigelii KCTC 7707
[8] = tested on: Aspergillus fumigatus KCTC 6145
Escherichia coli UB1005 = tested on: Escherichia coli UB1005
[9] = tested on: Pseudomonas aeruginosa H374
[10] = tested on: Pseudomonas aeruginosa H547
[11] = tested on: Pseudomonas aeruginosa H744
[12] = tested on: Pseudomonas aeruginosa K799
[13] = tested on: Pseudomonas aeruginosa Z61
[14] = tested on: Salmonella enterica subsp. enterica serovar Typhimurium ATCC 14028s

SMILES	MIC [1]	MIC [2]	MIC [3]	MIC [4] [µM]	MIC [5]	MIC [6] [µM]	MIC [7]	MIC [8]	MIC (Escherichia coli UB1005) [µM]	MIC [9] [µM]	MIC [10] [µM]	MIC [11] [µM]	MIC [12] [µM]	MIC [13] [µM]	MIC [14] [µM]
CC[C@H](C)[C@H](NC(=O)[C@H](C)NC(=O)[C@H](CCC(=O)O)NC(=O)[C@H](Cc1cnc[nH]1)NC(=O)[C@H](C)NC(=O)CNC(=O)[C@H](CCC(N)=O)NC(=O)[C@H](Cc1ccccc1)NC(=O)[C@@H](NC(=O)[C@H](CCCCN)NC(=O)[C@H](CCCCN)NC(=O)[C@H](CC(C)C)NC(=O)[C@H](C)NC(=O)[C@H](CC(N)=O)NC(=O)[C@H](CC(C)C)NC(=O)CN)C(C)C)C(=O)N[C@@H](CCCCN)C(=O)N[C@@H](CC(C)C)C(=O)N[C@@H](C)C(=O)N[C@@H](CC(N)=O)C(=O)N[C@@H](CC(N)=O)C(=O)N[C@@H](Cc1cnc[nH]1)C(=O)N[C@H](C(=O)N[C@@H](CCC(N)=O)C(N)=O)C(C)C [GLNALKKVFQGAHEAIKLANNHVQ]	≥ 64 µM	8 µM and 16 µM	8 µM (≈ 20.8 µg/mL)	≥ 64	2 µM (≈ 5.2 µg/mL)	≥ 64	6 µM and 2 µM	–	–	–	–	–	–	–	–
CC[C@H](C)[C@H](NC(=O)CNC(=O)[C@H](CCC(N)=O)NC(=O)[C@H](C)NC(=O)[C@@H](NC(=O)[C@H](CCCCN)NC(=O)[C@H](CCCCN)NC(=O)[C@H](CC(C)C)NC(=O)[C@H](C)NC(=O)[C@H](CC(N)=O)NC(=O)[C@H](CC(C)C)NC(=O)CN)C(C)C)C(=O)N[C@@H](Cc1cnc[nH]1)C(=O)N[C@@H](CCC(=O)O)C(=O)N[C@@H](C)C(=O)N[C@@H](C)C(=O)N[C@@H](CCCCN)C(=O)N[C@@H](CC(C)C)C(=O)N[C@H](C(=O)N[C@@H](CC(N)=O)C(=O)N[C@@H](CC(N)=O)C(=O)N[C@@H](Cc1cnc[nH]1)C(=O)N[C@H](C(=O)N[C@@H](CCC(N)=O)C(N)=O)C(C)C)[C@@H](C)CC [GLNALKKVAQGIHEAAKLINNHVQ]	≥ 32 µM and 16 µM	4 µM and 8 µM	6 µM and 8 µM	≥ 64	2 µM and 1 µM	≥ 32	1.5 µM and 1 µM	≥ 32 µM and 16 µM	–	–	–	–	–	–	–
CC[C@H](C)[C@H](NC(=O)[C@H](CC(C)C)NC(=O)[C@H](C)NC(=O)[C@@H]1CCCN1C(=O)[C@H](CC(C)C)NC(=O)CNC(=O)[C@@H](NC(=O)[C@@H](NC(=O)[C@H](CC(C)C)NC(=O)[C@@H](NC(=O)[C@H](CCCCN)NC(=O)[C@H](CO)NC(=O)CNC(=O)CNC(=O)[C@H](CCCCN)NC(=O)[C@@H](NC(=O)[C@H](CC(C)C)NC(=O)[C@H](CC(N)=O)NC(=O)[C@H](CCCCN)NC(=O)[C@@H](NC(=O)[C@H](Cc1ccccc1)NC(=O)[C@H](CO)NC(=O)[C@H](CCCCN)NC(=O)[C@H](Cc1c[nH]c2ccccc12)NC(=O)[C@@H](N)CCCCN)[C@@H](C)CC)[C@@H](C)O)[C@@H](C)CC)[C@@H](C)O)[C@@H](C)O)C(=O)N[C@@H](CO)C(=O)O [KWKSFIKNLTKGGSKILTTGLPALIS]	–	–	–	–	–	–	–	–	1.43 (≈ 4 µg/mL)	2.85 (≈ 8 µg/mL)	11.4 (≈ 32 µg/mL)	5.71 (≈ 16 µg/mL)	22.8 (≈ 64 µg/mL)	11.4 (≈ 32 µg/mL)	15.3 (≈ 43 µg/mL)
CC[C@H](C)[C@H](NC(=O)[C@H](CC(C)C)NC(=O)[C@@H]1CCCN1C(=O)[C@H](CCCCN)NC(=O)[C@H](C)NC(=O)[C@@H](NC(=O)[C@@H](NC(=O)[C@H](CC(C)C)NC(=O)[C@@H](NC(=O)[C@H](CO)NC(=O)[C@@H](NC(=O)[C@H](CCCCN)NC(=O)[C@H](C)NC(=O)[C@H](CO)NC(=O)[C@@H](NC(=O)[C@H](CC(C)C)NC(=O)[C@H](CC(C)C)NC(=O)[C@H](CCCCN)NC(=O)[C@@H](NC(=O)[C@H](Cc1ccccc1)NC(=O)[C@H](CO)NC(=O)[C@H](CCCCN)NC(=O)[C@H](CCCCN)NC(=O)[C@@H](N)CCCCN)[C@@H](C)CC)[C@@H](C)O)C(C)C)C(C)C)[C@@H](C)O)[C@@H](C)O)C(=O)N[C@@H](CO)C(=O)N[C@@H](CO)C(=O)O [KKKSFIKLLTSAKVSVLTTAKPLISS]	–	–	–	–	–	–	–	–	11.5 (≈ 32 µg/mL)	22.9 (≈ 64 µg/mL)	22.9 (≈ 64 µg/mL)	22.9 (≈ 64 µg/mL)	22.9 (≈ 64 µg/mL)	22.9 (≈ 64 µg/mL)	22.9 (≈ 64 µg/mL)
